Laboratory results as given in patent publication US20210078988A1, “MODULATORS OF INDOLEAMINE 2,3-DIOXYGENASE” (GLAXOSMITHKLINE INTELLECTUAL PROPERTY DEVELOPMENT LIMITED, priority 2017, published 2021).

Biological target: T1, indoleamine 2, 3-dioxygenase (IDO1) (Homo sapiens, UniProt P14902)
T1 construct: human peripheral blood mononuclear cells (PBMC) (PB003F; host or cells: human PBMC stimulated with IFN-gamma and LPS
Test: PBMC IDO1 assay (kynurenine detection via mass spectrometry)
Assay type: cell-based
Conditions: human PBMC stimulated with IFN-γ and LPS, 2 days, kynurenine by mass spectrometry; read-out: IDO1 PBMC pIC50 (converted)
Summary of the method: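 Human PBMCs (50,000/well) stimulated with IFN-γ 100 ng/ml and LPS 50 ng/ml were exposed to 11-point 3-fold compound dilutions for 2 days at 37 °C. Supernatant kynurenine was quantified by RapidFire MS relative to an internal standard; parallel CellTiter-Glo ATP luminescence measured cytotoxicity, with four-parameter curve fitting.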

T1 sequence (P14902 whole entry): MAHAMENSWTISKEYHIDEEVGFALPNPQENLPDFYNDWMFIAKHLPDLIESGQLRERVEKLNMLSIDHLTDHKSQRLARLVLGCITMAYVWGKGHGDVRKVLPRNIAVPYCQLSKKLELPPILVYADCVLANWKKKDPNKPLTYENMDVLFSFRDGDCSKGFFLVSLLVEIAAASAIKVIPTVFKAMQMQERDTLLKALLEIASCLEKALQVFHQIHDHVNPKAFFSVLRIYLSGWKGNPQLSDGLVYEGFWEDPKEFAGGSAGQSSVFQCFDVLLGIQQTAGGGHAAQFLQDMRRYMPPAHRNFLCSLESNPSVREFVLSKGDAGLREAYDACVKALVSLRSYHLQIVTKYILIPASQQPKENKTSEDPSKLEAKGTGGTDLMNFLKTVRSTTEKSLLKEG

| IC50 [nM] | Compound |
| --- | --- |
| 316 | CC(C)(C)OC(=O)N1CCC(CC(NC(=O)Nc2ccc(F)cc2)c2ccccc2)CC1 (stereo not shown) [Example 200, tert-butyl 4-(2-(3-(4-fluorophenyl)ureido)-2-phenylethyl)piperidine-1-carboxylate] |
| 316 | CC(C)(C)OC(=O)N1CCC(CC(NC(=O)C23CCC(CC2)CC3)c2ccccc2)CC1 (stereo not shown) [Example 201, tert-butyl 4-(2-(bicyclo[2.2.2]octane-1-carboxamido)-2-phenylethyl)piperidine-1-carboxylate] |
| 316 | COCCOc1ccc(C(CC2CCN(C(=O)OC(C)(C)C)CC2)NC(=O)c2ccc(F)cc2)cn1 (stereo not shown) [Example 202, tert-butyl 4-(2-(4-fluorobenzamido)-2-(6-(2-methoxyethoxy)pyridin-3-yl)ethyl)piperidine-1-carboxylate] |
| 316 | CC(C)(C)OC(=O)N1CCC(CC(NC(=O)c2ccc(F)c(Cl)c2)c2ccccc2)CC1 (stereo not shown) [Example 203, tert-butyl 4-(2-(3-chloro-4-fluorobenzamido)-2-phenylethyl)piperidine-1-carboxylate] |
| 316 | Cc1ccc(C(=O)NC(CC2CCN(C(=O)OC(C)(C)C)CC2)c2ccccc2)o1 (stereo not shown) [Example 204, tert-butyl 4-(2-(5-methylfuran-2-carboxamido)-2-phenylethyl)piperidine-1-carboxylate] |
| 316 | CC(C)(C)OC(=O)N1CCC(CC(NC(=O)c2ccc(Cl)c(Cl)c2)c2ccccc2)CC1 (stereo not shown) [Example 205, tert-butyl 4-(2-(3,4-dichlorobenzamido)-2-phenylethyl)piperidine-1-carboxylate] |
| 316 | COC(=O)N1CCC(C[C@@H](NC(=O)c2ccc(Cl)s2)C2CC2)CC1 [Example 206, (R)-methyl 4-(2-(5-chlorothiophene-2-carboxamido)-2-cyclopropylethyl)piperidine-1-carboxylate] |
| 398 | CC(C)(C)OC(=O)N1CCC(CC(NC(=O)c2ccc(F)cc2)c2cccnc2)CC1 (stereo not shown) [Example 207, tert-butyl 4-(2-(4-fluorobenzamido)-2-(pyridin-3-yl)ethyl)piperidine-1-carboxylate] |
| 398 | CC(C)(C)OC(=O)N1CCC(CC(NC(=O)c2ccc(F)cc2)c2ccncc2)CC1 (stereo not shown) [Example 208, tert-butyl 4-(2-(4-fluorobenzamido)-2-(pyridin-4-yl)ethyl)piperidine-1-carboxylate] |
| 398 | CC(C)(C)OC(=O)N1CCC(CC(NC(=O)C2CCCCCC2)c2ccccc2)CC1 (stereo not shown) [Example 209, tert-butyl 4-(2-(cycloheptanecarboxamido)-2-phenylethyl)piperidine-1-carboxylate] |
| 398 | CC(C)(C)CC(=O)NC(CC1CCN(C(=O)OC(C)(C)C)CC1)c1ccccc1 (stereo not shown) [Example 210, tert-butyl 4-(2-(3,3-dimethylbutanamido)-2-phenylethyl)piperidine-1-carboxylate] |
| 398 | CC(C)(C)OC(=O)N1CCC(CC(NC(=O)c2cc(F)ccc2F)c2ccccc2)CC1 (stereo not shown) [Example 211, tert-butyl 4-(2-(2,5-difluorobenzamido)-2-phenylethyl)piperidine-1-carboxylate] |
| 398 | CC(C)c1ccc(C(=O)NC(CC2CCN(C(=O)OC(C)(C)C)CC2)c2ccccc2)cc1 (stereo not shown) [Example 212, tert-butyl 4-(2-(4-isopropylbenzamido)-2-phenylethyl)piperidine-1-carboxylate] |
| 398 | Cc1cc(C(=O)NC(CC2CCN(C(=O)OC(C)(C)C)CC2)c2ccccc2)ccc1F (stereo not shown) [Example 213, tert-butyl 4-(2-(4-fluoro-3-methylbenzamido)-2-phenylethyl)piperidine-1-carboxylate] |
| 398 | CC(C)(C)OC(=O)N1CCC(C[C@@H](NC(=O)c2ccc(Cl)s2)C2CC2)CC1 [Example 214, (R)-tert-butyl 4-(2-(5-chlorothiophene-2-carboxamido)-2-cyclopropylethyl)piperidine-1-carboxylate] |
| 398 | O=C(NC(CC1CCN(S(=O)(=O)c2ccccc2)CC1)c1ccccc1)c1ccc(Cl)cc1 (stereo not shown) [Example 215, 4-chloro-N-(1-phenyl-2-(1-(phenylsulfonyl)piperidin-4-yl)ethyl)benzamide] |
| 501 | COc1cccc(C(=O)NC(CC2CCN(C(=O)OC(C)(C)C)CC2)c2ccccc2)c1 (stereo not shown) [Example 216, tert-butyl 4-(2-(3-methoxybenzamido)-2-phenylethyl)piperidine-1-carboxylate] |
| 501 | Cc1ccc(C(=O)NC(CC2CCN(C(=O)OC(C)(C)C)CC2)c2ccccc2)cn1 (stereo not shown) [Example 217, tert-butyl 4-(2-(6-methylnicotinamido)-2-phenylethyl)piperidine-1-carboxylate] |
| 501 | Cc1ccc(C(=O)NC(CC2CCN(C(=O)OC(C)(C)C)CC2)c2ccccc2)c(F)c1 (stereo not shown) [Example 218, tert-butyl 4-(2-(2-fluoro-4-methylbenzamido)-2-phenylethyl)piperidine-1-carboxylate] |
| 501 | CC(C)(C)OC(=O)N1CCC(CC(NC(=O)c2ccccc2F)c2ccccc2)CC1 (stereo not shown) [Example 219, tert-butyl 4-(2-(2-fluorobenzamido)-2-phenylethyl)piperidine-1-carboxylate] |
| 501 | CC(C)(C)OC(=O)N1CCC(CC(NC(=O)c2ccc[nH]2)c2ccccc2)CC1 (stereo not shown) [Example 220, tert-butyl 4-(2-phenyl-2-(1H-pyrrole-2-carboxamido)ethyl)piperidine-1-carboxylate] |
| 501 | CC(C)(C)OC(=O)N1CCC(CC(NC(=O)c2ccc(F)cc2)c2nnc(C3CC3)o2)CC1 (stereo not shown) [Example 221, tert-butyl 4-(2-(5-cyclopropyl-1,3,4-oxadiazol-2-yl)-2-(4-fluorobenzamido)ethyl)piperidine-1-carboxylate] |
| 501 | CC(=O)N1CCC(CC(NC(=O)c2ccc(Cl)cc2)c2ccccc2)CC1 (stereo not shown) [Example 222, N-(2-(1-acetylpiperidin-4-yl)-1-phenylethyl)-4-chlorobenzamide] |
| 501 | CC(C)c1nnc(C(CC2CCN(C(=O)OC(C)(C)C)CC2)NC(=O)c2ccc(F)cc2)o1 (stereo not shown) [Example 223, tert-butyl 4-(2-(4-fluorobenzamido)-2-(5-isopropyl-1,3,4-oxadiazol-2-yl)ethyl)piperidine-1-carboxylate] |
| 501 | CC(C)(C)OC(=O)N1CCC(CC(NC(=O)c2ccc(Cl)s2)c2n[nH]c(=O)o2)CC1 (stereo not shown) [Example 224, tert-butyl 4-(2-(5-chlorothiophene-2-carboxamido)-2-(5-oxo-4,5-dihydro-1,3,4-oxadiazol-2-yl)ethyl)piperidine-1-carboxylate] |
| 501 | CC(C)CNCC(CC1CCN(C(=O)OC(C)(C)C)CC1)NC(=O)c1ccc(F)cc1 (stereo not shown) [Example 225, tert-butyl 4-(2-(4-fluorobenzamido)-3-(isobutylamino)propyl)piperidine-1-carboxylate] |
| 631 | CC(C)(C)OC(=O)N1CCC(CC(NC(=O)c2ccc(F)cc2)c2ccccn2)CC1 (stereo not shown) [Example 226, tert-butyl 4-(2-(4-fluorobenzamido)-2-(pyridin-2-yl)ethyl)piperidine-1-carboxylate] |
| 631 | CC(C)Cc1ccc(C(=O)NC(CC2CCN(C(=O)OC(C)(C)C)CC2)c2ccccc2)s1 (stereo not shown) [Example 227, tert-butyl 4-(2-(5-isobutylthiophene-2-carboxamido)-2-phenylethyl)piperidine-1-carboxylate] |
